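Test compounds were applied to cells in 96-well plates for 48 hours at 5 doses. GI50 is the concentration that inhibits growth by half.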 The source made the active and inactive calls. Rule as the data show it: active = GI50 up to about 1.1 µM and inactive = higher.
What was measured:
Assay in all cases: growth of human tumour cells (NCI), 48 h
[1] = tested on: COLO 205
[2] = tested on: HCC 2998
[3] = tested on: HL-60
[4] = tested on: HOP-62
[5] = tested on: K562
[6] = tested on: KM12
[7] = tested on: M14
[8] = tested on: MOLT-4
[9] = tested on: NCI-H226
[10] = tested on: OVCAR-3
[11] = tested on: OVCAR-4
[12] = tested on: OVCAR-5
[13] = tested on: SF-295
[14] = tested on: SNB-19
[15] = tested on: U-251
[16] = tested on: SK-MEL-5
[17] = tested on: SR

Measured: GI50

O=[N+]([O-])c1ccc(/C=N/C23CC4CC(CC(C4)C2)C3)cc1
inactive: [1] > 100 µM | [2] > 100 µM | [3] 71.3 µM | [4] > 100 µM | [5] 54.7 µM | [6] > 100 µM | [7] > 100 µM | [8] > 100 µM | [9] > 100 µM | [10] > 100 µM | [11] > 100 µM | [12] > 100 µM | [13] > 100 µM | [14] > 100 µM | [15] > 100 µM

O=C1c2c(c3c4ccccc4n(CC4CO4)c3c3[nH]c4ccccc4c23)C(=O)N1Cc1ccccc1 (configuration not stated)
inactive: [2] > 100 µM | [3] > 100 µM | [4] > 100 µM | [5] 95.7 µM | [6] > 100 µM | [7] > 100 µM | [8] 38.6 µM | [9] 48.6 µM | [10] > 100 µM | [11] 33 µM | [12] > 100 µM | [13] > 100 µM | [16] > 10 µM | [14] > 100 µM | [17] > 100 µM | [15] > 100 µM

CC1=NN(C(=O)Cc2ccccc2)C(=O)/C1=C\c1ccc([N+](=O)[O-])cc1
inactive: [1] > 100 µM | [2] > 100 µM | [4] > 100 µM | [5] > 100 µM | [6] > 100 µM | [7] > 100 µM | [8] > 100 µM | [9] > 100 µM | [10] > 100 µM | [11] > 100 µM | [12] > 100 µM | [13] > 100 µM | [16] > 100 µM | [14] > 100 µM | [15] > 100 µM

N#CCN1C(=O)c2cc([N+](=O)[O-])cc3cc([N+](=O)[O-])cc(c23)C1=O
inactive: [1] 11.4 µM | [2] 15 µM | [3] 3.21 µM | [4] 18.8 µM | [5] 5.68 µM | [6] 11.2 µM | [7] 17 µM | [8] 2.38 µM | [9] 21.6 µM | [10] 13.4 µM | [11] 14.8 µM | [12] 18.9 µM | [13] 30.5 µM | [16] 15.6 µM | [14] 24.2 µM | [17] 1.36 µM | [15] 17.9 µM

O=c1c2ccccc2nc(-c2cccc(Cl)c2)n1NCC1(O)OCC(O)C(O)C1O (configuration not stated)
inactive: [1] > 100 µM | [3] 30.7 µM | [5] 45.7 µM | [6] > 100 µM | [7] > 100 µM | [8] 48.2 µM | [9] > 100 µM | [10] > 100 µM | [11] > 100 µM | [12] > 100 µM | [13] > 100 µM | [16] > 10 µM | [14] > 100 µM | [17] 43.9 µM | [15] > 100 µM

CN1C(=O)N(c2nc3ccccc3[nH]2)C(C)(C)C1=O
inactive: [1] > 100 µM | [3] > 100 µM | [4] > 100 µM | [5] > 100 µM | [6] > 100 µM | [7] > 100 µM | [8] > 100 µM | [9] > 100 µM | [10] > 100 µM | [11] > 100 µM | [13] > 100 µM | [16] > 100 µM | [14] > 100 µM | [17] > 100 µM | [15] > 100 µM

COC(=O)N/N=C(/CCC(=O)Nc1ccc(C)c(C)c1)CC(=O)C(C)(C)C
inactive: [1] > 100 µM | [2] > 100 µM | [3] > 100 µM | [4] > 100 µM | [5] > 100 µM | [6] > 100 µM | [7] > 100 µM | [8] > 100 µM | [9] > 100 µM | [10] > 100 µM | [11] > 100 µM | [12] > 100 µM | [13] > 100 µM | [16] > 100 µM | [14] > 100 µM | [15] > 100 µM

CCOC(=O)C1=C(C)N(c2ccc(C)cc2)C2=C(C(=O)N(c3ccccc3)C2c2ccccc2)C1c1ccccc1 (configuration not stated)
inactive: [1] > 25 µM | [2] 18.4 µM | [3] > 25 µM | [4] > 25 µM | [5] 19.8 µM | [7] > 25 µM | [8] 7.82 µM | [9] > 25 µM | [10] > 25 µM | [11] 11.3 µM | [13] 22.2 µM | [16] 16.5 µM | [14] > 25 µM | [17] 17.7 µM | [15] > 25 µM

CCOC(=O)c1[nH]c(COC(C)=O)c(CCCOC(C)=O)c1CCCOC(C)=O
inactive: [1] > 100 µM | [2] > 100 µM | [3] > 100 µM | [4] > 100 µM | [5] > 100 µM | [6] > 100 µM | [8] > 100 µM | [9] > 100 µM | [10] > 100 µM | [11] > 100 µM | [12] > 100 µM | [13] > 100 µM | [14] > 100 µM | [17] > 100 µM | [15] > 100 µM

O=C1C2C=CC(n3[nH]c(=O)n(Cc4ccccc4)c3=O)CC2C(=O)N1c1cccc(Cl)c1 (configuration not stated)
inactive: [1] > 100 µM | [2] > 100 µM | [3] > 100 µM | [4] > 100 µM | [5] > 100 µM | [6] > 100 µM | [7] > 100 µM | [9] > 100 µM | [10] > 100 µM | [11] > 100 µM | [12] > 100 µM | [13] > 100 µM | [16] > 100 µM | [14] > 100 µM | [17] > 100 µM | [15] > 100 µM

OCc1cc2c(cn1)[nH]c1ccc(NCc3ccccc3)cc12
inactive: [1] 17.7 µM | [2] 24.8 µM | [3] 12.1 µM | [4] 51.9 µM | [5] 23 µM | [6] 18.6 µM | [7] 16.4 µM | [8] 17.5 µM | [9] 19.1 µM | [10] 19.4 µM | [11] 26.5 µM | [12] 27.7 µM | [13] 22.3 µM | [16] 12.2 µM | [14] 37.3 µM | [15] 38.9 µM

O=C1OC(c2ccccc2)=N/C1=C/NC(Cc1ccccc1)C(=O)O (configuration not stated)
inactive: [1] > 100 µM | [2] > 100 µM | [3] > 100 µM | [4] > 100 µM | [5] > 100 µM | [6] > 100 µM | [7] > 100 µM | [8] > 100 µM | [9] > 100 µM | [10] > 100 µM | [11] > 100 µM | [12] > 100 µM | [13] > 100 µM | [16] > 100 µM | [14] > 100 µM | [17] > 100 µM | [15] > 100 µM

N#CC(C#N)=CSc1ccccc1
inactive: [1] 24.5 µM | [3] 11.9 µM | [4] 55 µM | [5] 80.7 µM | [6] 19.7 µM | [7] 22.9 µM | [8] 13.2 µM | [9] 19.5 µM | [10] 34.4 µM | [11] 47 µM | [12] 26.3 µM | [13] 35 µM | [16] 28.5 µM | [14] 60 µM | [17] 7.6 µM | [15] 16.5 µM

COc1ccc(/C=C/c2nnc(S)[nH]2)cc1OC
inactive: [2] > 100 µM | [3] > 100 µM | [5] > 100 µM | [7] > 100 µM | [8] > 100 µM | [9] > 100 µM | [10] > 100 µM | [11] > 100 µM | [12] > 100 µM | [13] > 100 µM | [16] > 100 µM | [14] > 100 µM | [17] > 100 µM | [15] > 100 µM

Nc1nc2c(ncn2CC(CO)CC(c2ccccc2)P(=O)(O)O)c(=O)[nH]1 (configuration not stated)
inactive: [1] > 100 µM | [2] > 100 µM | [3] > 100 µM | [4] > 100 µM | [5] > 100 µM | [6] > 100 µM | [7] > 100 µM | [8] > 100 µM | [9] > 100 µM | [10] > 100 µM | [12] > 100 µM | [13] > 100 µM | [16] > 100 µM | [14] > 100 µM | [17] > 100 µM | [15] > 100 µM

CC1=CC(=O)CC2(C)CC[C@@H]3C[C@]12OC3(C)C (some centres not stated)
inactive: [1] > 100 µM | [2] > 100 µM | [3] > 100 µM | [4] > 100 µM | [5] > 100 µM | [6] > 100 µM | [7] > 100 µM | [8] > 100 µM | [9] > 100 µM | [10] > 100 µM | [11] > 100 µM | [12] > 100 µM | [13] > 100 µM | [16] > 100 µM | [14] > 100 µM | [17] > 100 µM | [15] > 100 µM

N=C1NC(=O)N2CC12 (configuration not stated) [IMEXON]
inactive: [1] > 100 µM | [2] > 100 µM | [3] 30.5 µM | [4] > 100 µM | [5] 73.1 µM | [6] > 100 µM | [7] > 100 µM | [8] > 100 µM | [9] > 100 µM | [10] > 100 µM | [11] > 100 µM | [13] > 100 µM | [16] > 100 µM | [14] > 100 µM | [17] 51.4 µM | [15] > 100 µM
